# Key:
# mdx mouse = mdx mouse model of Duchenne muscular dystrophy (DMD); assay type: in vivo; details: mdx mice, vs MDX-Vehicle
# Description: The effect of cilnidipine and the cilnidipine derivative NS4-043 in the mdx mouse model of Duchenne muscular dystrophy (DMD) model was evaluated. The mdx mouse has a point mutation in its DMD gene, changing the amino acid coding for a glutamine to a stop codon, which causes the muscle cells to produce a small, nonfunctional dystrophin protein.
# Animals were dosed once daily with vehicle, idebenone or cilnidipine on study days: 0 to 20.
# Mice were evaluated by a rotarod test on study days 19 and 20. Body weight was measured throughout the study period. […] (CK) and […] (LDH), two biomarkers of DMD, were measured on day 21.
# [1] = system: J774.1 mouse macrophage cell line; test: In vitro phagocytosis of PE-labeled polystyrene beads by macrophages (flow cytometry); assay type: cell-based; details: 0.3 μM, 1 μM, or 3 μM for 20 hours; beads 2.5 hours; vs DMSO vehicle
# Description: The effect of cilnidipine on phagocytosis by macrophages was evaluated in vitro using the J774.1 mouse macrophage cell line. Cells were seeded at 2×10^5 cells/well/200 μL of a 48 well plate and cultured for 24 hours in DMEM medium containing 10% FBS and antibiotics at 37° C. under 5% CO2. Cells were washed once and then incubated with cilnidipine at concentrations 0.3 μM, 1 μM, or 3 μM, or DMSO (vehicle) for 20 hours.
# The level of phagocytosis was evaluated by adding 10 μL of DMEM medium containing 4×10^6 PE-labeled polystyrene beads (Fluoresbrite® Polychromatic Red Microspheres 2.0 μm) to cells and culturing them for 2.5 hours. Cells were then washed 3 times with PBS and collected. The level of phagocytic activity was assessed by flow cytometry, measuring the amount of fluorescent signal derived from the PE-labelled beads that were taken up by the cells, with cells treated with 0.1% DMSO used as negative control. The proportions of cells engulfing 1 or more, 2 or more, 3 or more, and 4 or more particles were measured.
# [2] = system: pancreatic and melanoma cancer cell lines; test: Anti-proliferative effects on cancer cell lines in vitro; assay type: cell-based; details: AsPC-1, Capan-1, KP4, MIA PaCa-2, BxPC-3, A375, SK-MEL-28, MeWo
# Description: The effect of cilnidipine on cell proliferation of eight cancer cell lines is evaluated. Five pancreatic cancer cell lines are included, four containing KRAS mutations (AsPC-1 (G12D), Capan-1 (G12V), KP4 (M188V, G12D) and MIA PaCa-2 (G12C)), and one pancreatic cancer cell line with wild type KRAS, BxPC-3, in addition to three melanoma cell lines, two of which contain B-Raf mutations: A375 (V600E) and SK-MEL-28 (V600E), and one melanoma cell line with wild type B-Raf, MeWo.
# [3] = system: MC38 cells, a murine colon adenocarcinoma cell line; test: In vivo anti-tumor effect in MC38 tumor-bearing C57BL/6 mice; parameters: species or system mouse; details: i.t. on days 10 and 14 after tumor inoculation; vs control mice
# Description: The in vivo anti-tumor effect of cilnidipine is assessed in MC38 tumor-bearing C57BL/6 mice. Five or seven week old C57BL/6 mice are maintained under specific pathogen-free (SPF) conditions. Mice are injected subcutaneously with 5×10^5 MC38 cells, a murine colon adenocarcinoma cell line, and treated i.t. with cilnidipine on days 10 and 14 after tumor inoculation. Tumor volume is measured at the various time points.
# [4] = system: Capan-1 human pancreatic ductal adenocarcinoma cells; test: Subcutaneous Capan-1 pancreatic cancer xenograft model in female BALB/c nude mice; assay type: in vivo
# Description: A study of the in vivo therapeutic efficacy of cilnidipine as a single agent or in combination with gemcitabine in the treatment of the subcutaneous Capan-1 pancreatic cancer xenograft model in female BALB/c nude mice was performed.
# Female BALB/c nude mice 7-9 weeks of age were used in the study.
# Capan-1 human pancreatic ductal adenocarcinoma cells were cultured in IMEM medium with 20% FBS at 37° C. and 5% CO2 in air atmosphere.
# Each mouse was inoculated subcutaneously in the right upper flank region with tumor cells (5×10^6 cells) in 0.1 ml of PBS with Matrigel (1:1) for tumor development.
# Randomization was started when the mean tumor size reached approximately 254.27 mm^3. A total of 48 mice were enrolled in the study and randomly allocated to the six study groups, with eight mice per group. Randomization was performed based on “Matched distribution” method (Study Director™ software, version 3.1.399.19). The date of randomization was denoted as day 0.
# After tumor inoculation, the animals were checked daily for morbidity and mortality. During routine monitoring, the animals were checked for any effects of tumor growth and treatments on behavior such as mobility, food and water consumption, body weight gain/loss (body weights were measured twice per week after randomization), eye/hair matting and any other abnormalities. Mortality and observed clinical signs were recorded for individual animals in detail.
# Tumor volumes were measured twice per week after randomization in two dimensions using a caliper, and the volume was expressed in mm^3 using the formula: V=(L×W×W)/2, where V is tumor volume, L is tumor length (the longest tumor dimension) and W is tumor width (the longest tumor dimension perpendicular to L). Dosing as well as tumor and body weight measurements were conducted in a Laminar Flow Cabinet. Body weights and tumor volumes were measured by using Study Director™ software (version 3.1.399.19).
# The vehicle used for cilnidipine was 5% DMSO and corn oil. The vehicle used for gemcitabine was saline. Dosing volume was adjusted for body weight (dosing volume=5/10 μL/g). Treatments were initiated on day 0 following randomization.
# The study was planned so that (1) mice showing a body weight loss (BWL)>20% after one measurement would be sacrificed, (2) mice showing BWL>15% after one measurement would be given a dosing holiday in a separate cage alone with daily monitoring for 72 hours, while other mice in the same group would receive dosing as scheduled, with treatment of the isolated mouse resuming when the BWL had recovered to BWL<10%, and (3) mice showing a BWL>10% would receive supplemental gel. BWL was calculated based on the BW on the first day of treatment.
# The study endpoint was tumor growth inhibition (TGI). […] TGI is expressed as: TGI (%)=100×(1−T/C). […]
# [5] = 10 mg/kg once daily days 0 to 20, measured day 21
# [6] = 200 mg/kg once daily days 0 to 20, measured day 21
compound,measurement,setting,value
COCCOC(=O)C1=C(C)NC(C)=C(C(=O)OC/C=C/c2ccncc2)C1c1ccccc1[N+](=O)[O-] (stereo not drawn) [NS4-043],plasma LDH,mdx mouse; [5],did not significantly decrease plasma LDH
COC1=C(OC)C(=O)C(CCCCCCCCCCO)=C(C)C1=O [Idebenone],plasma CK,mdx mouse; [6],"but not idebenone, significantly suppressed plasma CK"
same,plasma LDH,mdx mouse; [6],significantly decreased plasma LDH
COCCOC(=O)C1=C(C)NC(C)=C(C(=O)OC/C=C/c2ccccc2)C1c1cccc([N+](=O)[O-])c1 (stereo not drawn) [Cilnidipine],phagocytic activity of macrophages,[1],enhanced phagocytic activity of macrophages in a dose dependent manner
same,anti-proliferative effect on cancer cell lines,[2],has an anti-proliferative effect on the cell lines
same,tumor growth,[3],reduces tumor growth as compared to control mice
same,plasma CK,mdx mouse; [5],significantly suppressed plasma CK
same,plasma LDH,mdx mouse; [5],significantly decreased plasma LDH
same,"Tumor Growth Inhibition (TGI) on Day 20, TGI vs G01",[4]; Group 4: cilnidipine 10 mg/kg p.o. QD × 21 days,9.014%
same,"Tumor Growth Inhibition (TGI) on Day 20, TGI vs G01","[4]; Group 4: cilnidipine 10 mg/kg p.o. QD × 21 days, listed as cilnidipine",9.01%
Nc1ccn([C@@H]2O[C@H](CO)[C@@H](O)C2(F)F)c(=O)n1 [Gemcitabine],"Tumor Growth Inhibition (TGI) on Day 20, TGI vs G01",[4]; Group 2: gemcitabine 30 mg/kg i.p. Q3D × 4,15.273%
same,"Tumor Growth Inhibition (TGI) on Day 20, TGI vs G01",[4]; Group 3: gemcitabine 100 mg/kg i.p. Q3D × 4,30.717%
